{"source": "ChEMBL document CHEMBL4627407", "about": "“Identification of a Potent Oridonin Analogue for Treatment of Triple-Negative Breast Cancer” (J Med Chem, 2020)", "key": {"[1]": {"test_system": "HCC1806", "test": "Antitumor activity against human HCC1806 cells in ICR mouse assessed as tumor shrinkage at 12.5 to 25 mg/kg, iv administered once per day for 23 consecutive days by hematoxylin and eosin staining based histopathological assay", "format": "functional, organism-based"}, "[2]": {"test_system": "HCC1806", "test": "Induction of cell cycle arrest in human HCC1806 cells assessed as accumulation at G2/M phase at 200 nM after 48 hrs by propidium iodide staining based FACScan flow cytometry (reference value: 10.38%)", "format": "functional"}, "[3]": {"test": "Toxicity in ICR mouse assessed as reduction in body weight at 12.5 to 25 mg/kg, iv administered once per day for 23 consecutive days and measured every 2 days", "format": "organism-based", "details": "in vivo, 48 h"}, "[4]": {"test_system": "HCC1806", "test": "Induction of cell cycle arrest in human HCC1806 cells assessed as accumulation at G1 phase at 50 nM after 48 hrs by propidium iodide staining based FACScan flow cytometry (reference value: 70.74%)", "format": "functional"}, "[5]": {"test": "Inhibition of PI3K/Akt/mTOR signalling pathway in human HCC1806 cells assessed as reduction in phosphorylated Akt expression at S473 residue after 48 hrs by Western blot analysis", "format": "cell-based"}, "[6]": {"test_system": "HCC1806", "test": "Antimigratory activity against human HCC1806 cells assessed as reduction in MMP2 expression at 50 to 200 nM after 48 hrs by Western blot analysis", "format": "functional, cell-based"}, "[7]": {"test": "Inhibition of PI3K/Akt/mTOR signalling pathway in human HCC1806 cells assessed as reduction in phosphorylated PI3K expression at Y458 residue after 48 hrs by Western blot analysis", "format": "cell-based"}, "[8]": {"test_system": "HCC1806", "test": "Antimigratory activity against human HCC1806 cells assessed as reduction in MMP9 expression at 50 to 200 nM after 48 hrs by Western blot analysis", "format": "functional, cell-based"}, "[9]": {"test_system": "HCC1937", "test": "Antiproliferative activity against human HCC1937 cells after 72 hrs by MTT assay", "format": "functional, cell-based", "details": "HCC1937, 72 h"}, "[10]": {"test_system": "HCC1806", "test": "Inhibition of cell adhesion in human HCC1806 cells incubated for 48 hrs by phase contrast microscopy", "format": "functional, cell-based"}, "[11]": {"test": "Toxicity in ICR mouse assessed as induction of morphological changes in lung at 25 mg/kg, iv administered once per day for 23 consecutive days", "format": "organism-based", "details": "in vivo"}, "[12]": {"test_system": "HCC1806", "test": "Induction of cell cycle arrest in human HCC1806 cells assessed as accumulation at S phase at 50 nM after 48 hrs by propidium iodide staining based FACScan flow cytometry (reference value: 18.89%)", "format": "functional"}, "[13]": {"test_system": "HCC1806", "test": "Induction of apoptosis in human HCC1806 cells assessed as necrotic cells at 100 uM after 48 hrs by Annexin V-FITC/propidium iodide double staining based flow cytometry (reference value: 1.32%)", "format": "functional"}, "[14]": {"test_system": "HCC1806", "test": "Antitumor activity against human HCC1806 cells in ICR mouse assessed as tumor shrinkage at 12.5 to 25 mg/kg, iv administered once per day for 23 consecutive days by TUNEL based immunohistochemical analysis", "format": "functional, organism-based"}, "[15]": {"test_system": "HCC1806", "test": "Induction of apoptosis in human HCC1806 cells assessed as viable cells at 100 uM after 48 hrs by Annexin V-FITC/propidium iodide double staining based flow cytometry (reference value: 95.7%)", "format": "functional", "details": "HCC1806, 48 h, read-out: Activity"}, "[16]": {"test_system": "T47D", "test": "Antiproliferative activity against human T47D cells after 72 hrs by MTT assay", "format": "functional, cell-based"}, "[17]": {"test_system": "HCC1806", "test": "Induction of cell cycle arrest in human HCC1806 cells assessed as accumulation at G1 phase at 200 nM after 48 hrs by propidium iodide staining based FACScan flow cytometry (reference value: 70.74%)", "format": "functional"}, "[18]": {"test_system": "HCC1806", "test": "Induction of intracellular reactive oxygen species generation in human HCC1806 cells at 200 nM incubated for 48 hrs in presence of ROS scavenger N-acetyl cysteine by DCFH2-DA staining based flow cytometeric analysis", "format": "functional, cell-based"}, "[19]": {"test_system": "HCC1806", "test": "Induction of apoptosis in human HCC1806 cells assessed as decrease in Bcl2 expression at >= 50 nM after 48 hrs by Western blot analysis", "format": "functional, cell-based"}, "[20]": {"test_system": "DU-4475", "test": "Antiproliferative activity against human DU4475 cells after 72 hrs by MTT assay", "format": "functional, cell-based", "details": "DU-4475, 72 h"}, "[21]": {"test": "Toxicity in ICR mouse assessed as induction of morphological changes in heart at 25 mg/kg, iv administered once per day for 23 consecutive days", "format": "organism-based", "details": "in vivo"}, "[22]": {"test_system": "HCC1806", "test": "Induction of apoptosis in human HCC1806 cells assessed as necrotic cells at 50 uM after 48 hrs by Annexin V-FITC/propidium iodide double staining based flow cytometry (reference value: 1.32%)", "format": "functional"}, "[23]": {"test_system": "HCC1806", "test": "Antitumor activity against human HCC1806 cells in ICR mouse assessed as reduction in tumor weight at 25 mg/kg, iv administered once per day for 23 consecutive days and measured every 2 days relative to control", "format": "functional", "set-up": "scale not given: the % may be the effect or the level left"}, "[24]": {"test_system": "HCC1806", "test": "Antitumor activity against human HCC1806 cells in ICR mouse assessed as increase in apoptosis in tumor at 12.5 to 25 mg/kg, iv administered once per day for 23 consecutive days by hematoxylin and eosin staining based histopathological assay", "format": "functional, organism-based"}, "[25]": {"target": "Focal adhesion kinase 1 (Homo sapiens) (UniProt Q05397)", "sequence (Q05397 2-1052 limits assumed)": "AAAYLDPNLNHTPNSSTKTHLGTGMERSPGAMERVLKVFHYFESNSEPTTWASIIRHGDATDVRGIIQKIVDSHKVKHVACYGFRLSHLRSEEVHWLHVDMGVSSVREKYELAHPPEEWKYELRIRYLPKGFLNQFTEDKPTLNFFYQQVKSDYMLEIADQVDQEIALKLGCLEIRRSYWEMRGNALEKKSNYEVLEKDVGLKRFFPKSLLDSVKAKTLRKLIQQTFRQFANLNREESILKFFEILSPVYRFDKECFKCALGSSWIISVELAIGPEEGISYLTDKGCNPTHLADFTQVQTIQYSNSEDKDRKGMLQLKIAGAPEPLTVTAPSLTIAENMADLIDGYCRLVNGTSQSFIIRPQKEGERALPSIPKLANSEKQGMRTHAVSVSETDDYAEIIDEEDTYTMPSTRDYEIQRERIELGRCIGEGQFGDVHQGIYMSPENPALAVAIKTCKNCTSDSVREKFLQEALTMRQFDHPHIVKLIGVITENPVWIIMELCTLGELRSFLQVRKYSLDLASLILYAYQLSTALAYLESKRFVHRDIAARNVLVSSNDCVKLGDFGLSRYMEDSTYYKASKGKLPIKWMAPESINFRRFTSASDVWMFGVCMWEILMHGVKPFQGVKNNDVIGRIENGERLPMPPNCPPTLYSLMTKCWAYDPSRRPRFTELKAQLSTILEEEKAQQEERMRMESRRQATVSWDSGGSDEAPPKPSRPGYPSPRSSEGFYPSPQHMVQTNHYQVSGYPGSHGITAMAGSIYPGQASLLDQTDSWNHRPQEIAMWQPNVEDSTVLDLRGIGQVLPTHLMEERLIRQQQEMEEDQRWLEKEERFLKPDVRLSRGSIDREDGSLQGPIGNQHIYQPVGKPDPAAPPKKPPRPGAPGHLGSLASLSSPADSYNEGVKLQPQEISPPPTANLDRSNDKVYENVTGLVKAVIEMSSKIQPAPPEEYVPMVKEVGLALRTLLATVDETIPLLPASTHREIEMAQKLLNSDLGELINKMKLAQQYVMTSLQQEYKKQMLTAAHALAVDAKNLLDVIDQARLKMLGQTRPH", "test": "Inhibition of FAK phosphorylation at Tyr397 residue in human HCC1806 cells at 50 to 200 nM after 48 hrs by Western blot analysis", "format": "cell-based"}, "[26]": {"test_system": "HCC1806", "test": "Antitumor activity against human HCC1806 cells in ICR mouse assessed as tumor shrinkage at 12.5 to 25 mg/kg, iv administered once per day for 23 consecutive days by Ki67 staining-based immunohistochemical analysis", "format": "functional, organism-based"}, "[27]": {"test_system": "HCC1806", "test": "Induction of cell cycle arrest in human HCC1806 cells assessed as accumulation at G2/M phase at 50 nM after 48 hrs by propidium iodide staining based FACScan flow cytometry (reference value: 10.38%)", "format": "functional"}, "[28]": {"test_system": "HCC1806", "test": "Induction of cell death in human HCC1806 cells at 200 nM incubated for 72 hrs in presence of necroptosis inhibitor necrostatin-1 by MTT assay", "format": "functional, cell-based"}, "[29]": {"test_system": "HCC1806", "test": "Induction of cell cycle arrest in human HCC1806 cells assessed as increase in accumulation at G2/M phase after 48 hrs by propidium iodide staining based FACScan flow cytometry", "format": "functional"}, "[30]": {"test_system": "HCC1806", "test": "Induction of cell cycle arrest in human HCC1806 cells assessed as accumulation at G1 phase at 100 nM after 48 hrs by propidium iodide staining based FACScan flow cytometry (reference value: 70.74%)", "format": "functional"}, "[31]": {"test_system": "HCC1806", "test": "Induction of cell cycle arrest in human HCC1806 cells assessed as accumulation at G2/M phase at 100 nM after 48 hrs by propidium iodide staining based FACScan flow cytometry (reference value: 10.38%)", "format": "functional"}, "[32]": {"test": "Toxicity in ICR mouse assessed as induction of morphological changes in spleen at 25 mg/kg, iv administered once per day for 23 consecutive days", "format": "organism-based", "details": "in vivo"}, "[33]": {"test_system": "NCI/ADR-RES", "test": "Antiproliferative activity against human MCF7/ADR cells after 72 hrs by MTT assay", "format": "functional, cell-based"}, "[34]": {"test": "Toxicity in ICR mouse assessed as induction of morphological changes in liver at 25 mg/kg, iv administered once per day for 23 consecutive days", "format": "organism-based", "details": "in vivo"}, "[35]": {"test_system": "HCC1806", "test": "Induction of apoptosis in human HCC1806 cells assessed as late apoptotic cells at 200 uM after 48 hrs by Annexin V-FITC/propidium iodide double staining based flow cytometry (reference value: 0.81%)", "format": "functional"}}, "note": "The source made the active and inactive calls. No cut-off for these calls is given here.", "data": [{"smiles": "C=C1C(=O)[C@@]23C(=O)[C@@H]4OC[C@]5(C=CCC(C)(C)[C@@H]45)[C@@H]2CC[C@@H]1[C@H]3OC(=O)/C=C/c1ccncc1", "values": [{"measurement": "Activity", "setting": "[1]", "value": "Active"}, {"measurement": "Activity", "setting": "[2]", "value": 24.28, "unit": "%"}, {"measurement": "Activity", "setting": "[3]", "value": "Non-Toxic"}, {"measurement": "Activity", "setting": "[4]", "value": 65.83, "unit": "%"}, {"measurement": "inhibition", "setting": "[5]", "value": "Dose-dependent effect"}, {"measurement": "Activity", "setting": "[6]", "value": "Active"}, {"measurement": "inhibition", "setting": "[7]", "value": "Dose-dependent effect"}, {"measurement": "Activity", "setting": "[8]", "value": "Active"}, {"measurement": "IC50", "setting": "[9]", "value": 280, "unit": "nM"}, {"measurement": "inhibition", "setting": "[10]", "value": "Dose-dependent effect"}, {"measurement": "Activity", "setting": "[11]", "value": "Non-Toxic"}, {"measurement": "Activity", "setting": "[12]", "value": 18.24, "unit": "%"}, {"measurement": "Activity", "setting": "[13]", "value": 0.66, "unit": "%"}, {"measurement": "Activity", "setting": "[14]", "value": "Active"}, {"measurement": "viability at 100 µM", "setting": "[15]", "value": 69, "unit": "%"}, {"measurement": "IC50", "setting": "[16]", "value": 560, "unit": "nM"}, {"measurement": "Activity", "setting": "[17]", "value": 54.97, "unit": "%"}, {"measurement": "Activity", "setting": "[18]", "value": "inactive"}, {"measurement": "Activity", "setting": "[19]", "value": "Active"}, {"measurement": "IC50", "setting": "[20]", "value": 210, "unit": "nM"}, {"measurement": "Activity", "setting": "[21]", "value": "Non-Toxic"}, {"measurement": "Activity", "setting": "[22]", "value": 0.46, "unit": "%"}, {"measurement": "Activity", "setting": "[23]", "value": 74.1, "unit": "%"}, {"measurement": "Activity", "setting": "[24]", "value": "Active"}, {"measurement": "inhibition", "setting": "[25]", "value": "Active"}, {"measurement": "Activity", "setting": "[26]", "value": "Active"}, {"measurement": "Activity", "setting": "[27]", "value": 15.94, "unit": "%"}, {"measurement": "Activity", "setting": "[28]", "value": "Active"}, {"measurement": "Activity", "setting": "[29]", "value": "Dose-dependent effect"}, {"measurement": "Activity", "setting": "[30]", "value": 60.61, "unit": "%"}, {"measurement": "Activity", "setting": "[31]", "value": 20.26, "unit": "%"}, {"measurement": "Activity", "setting": "[32]", "value": "Non-Toxic"}, {"measurement": "IC50", "setting": "[33]", "value": 1380, "unit": "nM"}, {"measurement": "Activity", "setting": "[34]", "value": "Non-Toxic"}, {"measurement": "Activity", "setting": "[35]", "value": 22.79, "unit": "%"}]}]}
